Data published in US20220380383A1, “NEUROPROTECTIVE PDI MODULATING SMALL MOLECULES AND METHODS OF USE THEREOF” (THE TRUSTEES OF COLUMBIA UNIVERSITY IN THE CITY OF NEW YORK, priority 2018, published 2022).
Converted amounts (≈) assume the structure as drawn.

Tested on: PC12 mHTTQ103 cells
Test: Rescue of PC12 cells from mHTTQ103-induced cell death
Type: cell-based, rat
Details: Rattus norvegicus, PC-12; Tables 5-13; PC12 cells; read-out: EC50

SMILES | EC50
O=C(Nc1ccc(N2CCOCC2)cc1)c1ccccc1S [LC-21] | 696 nM
O=c1c2ccccc2sn1Cc1ccc(Br)cc1 [LC-26] | 778 nM
CN1CCN(Cn2sc3ccccc3c2=O)CC1 [LC-2] | 415 nM
O=C(Nc1ccccc1)n1sc2ccccc2c1=O [LC-6] | 476 nM
CC(C)(C)OC(=O)NC1CCN(Cn2sc3ccccc3c2=O)CC1 [LC-8] | 384 nM
O=C(Nc1cccc(F)c1)c1ccccc1S [LC-30] | 2990 nM
O=c1c2ccccc2sn1CN1CCSCC1 [LC-3] | 463 nM
Cc1ccc2c(=O)[nH]sc2c1 [LC-60, 6-Methylbenzo[d]isothiazol-3(2H)-one] | 562 nM
CC(C)(C)OC(=O)N1CCN(Cn2sc3ccccc3c2=O)CC1 [LC-10] | 581 nM
O=c1c2ccccc2sn1-c1ccc(Cc2ccccc2)cc1 [LC-25] | 1590 nM
C[C@H](c1ccccc1)n1sc2ccccc2c1=O [LC-29] | 669 nM
C[C@@H](NC(=O)c1ccccc1S)c1ccccc1 [LC-28] | 808 nM
COCCn1sc2ccccc2c1=O [LC-32] | 700 nM
O=c1c2ccccc2sn1CN1CCC(O)CC1 [LC-7] | 441 nM

Same assay, conditions: Rattus norvegicus, PC-12; rescue from mHTTQ103 induced cell death; read-out: PC12 cells EC50

SMILES | EC50
CC(C)(C)OC(=O)NC1CCN(Cn2sc3ccccc3c2=O)CC1 [LC-8] | 384 nM
Cc1ccc2c(=O)[nH]sc2c1 [LC-60, 6-Methylbenzo[d]isothiazol-3(2H)-one] | 562 nM
CC(C)(C)OC(=O)N1CCN(Cn2sc3ccccc3c2=O)CC1 [LC-10] | 561 nM
C[C@H](c1ccccc1)n1sc2ccccc2c1=O [LC-29] | 669 nM

Same assay, conditions: Tables 5-13; PC12 cells

SMILES | Max Viability (%)
O=C(Nc1ccc(N2CCOCC2)cc1)c1ccccc1S [LC-21] | 32%
O=c1c2ccccc2sn1Cc1ccc(Br)cc1 [LC-26] | 38%
CN1CCN(Cn2sc3ccccc3c2=O)CC1 [LC-2] | 63%
O=C(Nc1ccccc1)n1sc2ccccc2c1=O [LC-6] | 66%
CC(C)(C)OC(=O)NC1CCN(Cn2sc3ccccc3c2=O)CC1 [LC-8] | 68%
O=C(Nc1cccc(F)c1)c1ccccc1S [LC-30] | 62%
O=c1c2ccccc2sn1CN1CCSCC1 [LC-3] | 63%
Cc1ccc2c(=O)[nH]sc2c1 [LC-60, 6-Methylbenzo[d]isothiazol-3(2H)-one] | 60%
CC(C)(C)OC(=O)N1CCN(Cn2sc3ccccc3c2=O)CC1 [LC-10] | 72%
O=c1c2ccccc2sn1-c1ccc(Cc2ccccc2)cc1 [LC-25] | 37%
C[C@H](c1ccccc1)n1sc2ccccc2c1=O [LC-29] | 42%
C[C@@H](NC(=O)c1ccccc1S)c1ccccc1 [LC-28] | 56%
COCCn1sc2ccccc2c1=O [LC-32] | 42%
O=c1c2ccccc2sn1CN1CCC(O)CC1 [LC-7] | 72%

Same assay, conditions: rescue from mHTTQ103 induced cell death

SMILES | PC12 cells Max % Viability
O=C(Nc1ccc(N2CCOCC2)cc1)c1ccccc1S [LC-21] | 31.98%
O=c1c2ccccc2sn1Cc1ccc(Br)cc1 [LC-26] | 37.88%
CN1CCN(Cn2sc3ccccc3c2=O)CC1 [LC-2] | 63.29%
O=C(Nc1ccccc1)n1sc2ccccc2c1=O [LC-6] | 66.47%
CC(C)(C)OC(=O)NC1CCN(Cn2sc3ccccc3c2=O)CC1 [LC-8] | 68.37%
O=C(Nc1cccc(F)c1)c1ccccc1S [LC-30] | 62.38%
O=c1c2ccccc2sn1CN1CCSCC1 [LC-3] | 63.05%
Cc1ccc2c(=O)[nH]sc2c1 [LC-60, 6-Methylbenzo[d]isothiazol-3(2H)-one] | 59.49%
CC(C)(C)OC(=O)N1CCN(Cn2sc3ccccc3c2=O)CC1 [LC-10] | 71.82%
O=c1c2ccccc2sn1-c1ccc(Cc2ccccc2)cc1 [LC-25] | 36.83%
C[C@H](c1ccccc1)n1sc2ccccc2c1=O [LC-29] | 42.02%
C[C@@H](NC(=O)c1ccccc1S)c1ccccc1 [LC-28] | 55.52%
COCCn1sc2ccccc2c1=O [LC-32] | 41.96%
O=c1c2ccccc2sn1CN1CCC(O)CC1 [LC-7] | 71.98%

Target: T1, human catalytic PDI A1 a domain (PDIa) (Homo sapiens, UniProt P07237)
T1 construct: made in house; host or cells: Escherichia coli BL21-Gold (DE3)
T1 sequence (P07237 18-134): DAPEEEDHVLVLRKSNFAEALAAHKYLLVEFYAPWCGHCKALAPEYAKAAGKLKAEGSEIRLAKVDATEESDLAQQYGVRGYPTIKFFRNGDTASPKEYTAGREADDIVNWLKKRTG
Test: Isothermal titration calorimetry (ITC) binding to PDIa
Details: N/A = not active
Procedure: All ITC experiments were carried out at 25° C. on MicoCal Auto-ITC200 system (GE Healthcare). […] ITC titration experiments were carried out at 25° C. with 19 injections, 2 μl per injection, and 180 seconds between each injection. The reference cell power was set to 5 μcal/sec. A control experiment was performed for each compound, where each compound was titrated into buffer to account for heat released due to dilution. This background was subtracted from test data before a final dissociation constant was obtained. […] Gibbs free energy, ΔG, was calculated from equation ΔG=ΔH-TΔS. All other parameters, Ka, n, ΔH, ΔS, were determined directly from the titration data.
LOC14 analogs were designed and synthesized as described in the synthetic schemes. The analogs were evaluated for their binding to PDIa using isothermal titration calorimetry (ITC) (results of certain compounds are shown in FIGS. 1A-1E). Next, the analogs were tested for their ability to rescue PC12 cells from mHTT^Q103 induced cell death in a dose-dependent manner (results of certain compounds are shown in FIG. 2).

ITC KD | SMILES
KD = N/A irreversible or not active | O=c1c2ccccc2sn1Cc1ccc(Br)cc1 [LC-26]
KD = N/A irreversible or not active | O=c1c2ccccc2sn1-c1ccc(Cc2ccccc2)cc1 [LC-25]
KD = N/A irreversible or not active | C[C@@H](NC(=O)c1ccccc1S)c1ccccc1 [LC-28]

Further lines, the compound ahead of its results:

SMILES | ITC KD
O=C(Nc1ccc(N2CCOCC2)cc1)c1ccccc1S [LC-21] | KD = N/A irreversible or not active
O=C(Nc1ccccc1)n1sc2ccccc2c1=O [LC-6] | KD = N/A irreversible or not active
O=C(Nc1cccc(F)c1)c1ccccc1S [LC-30] | KD = N/A irreversible or not active

Same assay, conditions: N/A = not active; read-out: ITC KD

SMILES | Kd
O=c1c2ccccc2sn1CN1CCSCC1 [LC-3] | 97.1 nM
Cc1ccc2c(=O)[nH]sc2c1 [LC-60, 6-Methylbenzo[d]isothiazol-3(2H)-one] | 347 nM

Same assay, conditions: Tables 5-13; NA = not active; read-out: Kd

SMILES | Kd
CN1CCN(Cn2sc3ccccc3c2=O)CC1 [LC-2] | 134 ± 20 nM
CC(C)(C)OC(=O)NC1CCN(Cn2sc3ccccc3c2=O)CC1 [LC-8] | 94 nM
Cc1ccc2c(=O)[nH]sc2c1 [LC-60, 6-Methylbenzo[d]isothiazol-3(2H)-one] | 347 nM
CC(C)(C)OC(=O)N1CCN(Cn2sc3ccccc3c2=O)CC1 [LC-10] | 123 ± 34 nM
C[C@H](c1ccccc1)n1sc2ccccc2c1=O [LC-29] | 658 nM
COCCn1sc2ccccc2c1=O [LC-32] | 158 nM

Tested on: not listed separately
Test: Solubility (stock solvent)
Details: not given

Solubility | SMILES
100 mM in DMSO | O=c1c2ccccc2sn1Cc1ccc(Br)cc1 [LC-26]
100 mM in DMSO | O=c1c2ccccc2sn1-c1ccc(Cc2ccccc2)cc1 [LC-25]
100 mM in DMSO | C[C@H](c1ccccc1)n1sc2ccccc2c1=O [LC-29]
100 mM in DMSO | C[C@@H](NC(=O)c1ccccc1S)c1ccccc1 [LC-28]
100 mM in DMSO | COCCn1sc2ccccc2c1=O [LC-32]

More lines, now with the values behind:

SMILES | Solubility
O=C(Nc1ccc(N2CCOCC2)cc1)c1ccccc1S [LC-21] | 100 mM in DMSO
CN1CCN(Cn2sc3ccccc3c2=O)CC1 [LC-2] | 100 mM in DMSO
O=C(Nc1ccccc1)n1sc2ccccc2c1=O [LC-6] | 30 mM in DMSO
O=C(Nc1cccc(F)c1)c1ccccc1S [LC-30] | 100 mM in DMSO
Cc1ccc2c(=O)[nH]sc2c1 [LC-60, 6-Methylbenzo[d]isothiazol-3(2H)-one] | 100 mM in DMSO
CC(C)(C)OC(=O)N1CCN(Cn2sc3ccccc3c2=O)CC1 [LC-10] | 100 mM in DMSO
O=c1c2ccccc2sn1CN1CCC(O)CC1 [LC-7] | 100 mM in DMSO

Same assay, conditions: Tables 5-13; solvent not given (DMSO in Table 1)

Solubility | SMILES
100 mM (≈ 32 mg/mL) | O=c1c2ccccc2sn1Cc1ccc(Br)cc1 [LC-26]
100 mM (≈ 31.7 mg/mL) | O=c1c2ccccc2sn1-c1ccc(Cc2ccccc2)cc1 [LC-25]
100 mM (≈ 25.5 mg/mL) | C[C@H](c1ccccc1)n1sc2ccccc2c1=O [LC-29]
100 mM (≈ 25.7 mg/mL) | C[C@@H](NC(=O)c1ccccc1S)c1ccccc1 [LC-28]
100 mM (≈ 20.9 mg/mL) | COCCn1sc2ccccc2c1=O [LC-32]

Continued, compound first:

SMILES | Solubility
O=C(Nc1ccc(N2CCOCC2)cc1)c1ccccc1S [LC-21] | 100 mM (≈ 31.4 mg/mL)
CN1CCN(Cn2sc3ccccc3c2=O)CC1 [LC-2] | 100 mM (≈ 26.3 mg/mL)
O=C(Nc1ccccc1)n1sc2ccccc2c1=O [LC-6] | 30 mM (≈ 8.11 mg/mL)
O=C(Nc1cccc(F)c1)c1ccccc1S [LC-30] | 100 mM (≈ 24.7 mg/mL)
O=c1c2ccccc2sn1CN1CCSCC1 [LC-3] | 100 mM (≈ 26.6 mg/mL)
Cc1ccc2c(=O)[nH]sc2c1 [LC-60, 6-Methylbenzo[d]isothiazol-3(2H)-one] | 100 mM (≈ 16.5 mg/mL)
CC(C)(C)OC(=O)N1CCN(Cn2sc3ccccc3c2=O)CC1 [LC-10] | 100 mM (≈ 34.9 mg/mL)
O=c1c2ccccc2sn1CN1CCC(O)CC1 [LC-7] | 100 mM (≈ 26.4 mg/mL)
